System: PFF-Synuclein model of Parkinson's disease
Assay: Study H: LC-MS/MS quantification of striatal dopamine and metabolites in the PFF-Synuclein mouse model
Assay type: in vivo, C57BL6 mice
Conditions: ipsilateral striatum, 12 months
Description: To determine the oral efficacy of the compound of formula (I) in a chronic progressive model of Parkinson's disease (PD), the preformed fibrils (PFF) mouse model, using a prophylactic and therapeutic dosing schedule.
8-week-old C57BL6 male mice (obtained from ARC, Perth, Australia) were housed under a 12-h light cycle in a SPF climate-controlled facility with food and water provided ad libitum for two weeks prior to study initiation. The compound of formula (I) (or water alone for control animals) was administrated to mice in drinking water at 0.3 mg/ml. Animals were separated into the groups described in Table 9, with ten animals initiated in each cohort. For prophylactic dosing, treatment commenced one day prior to PFF-Synuclein injection. For therapeutic dosing, treatment commenced 4 months after disease induction with PFF-Synuclein.
Recombinant human a-synuclein was obtained from rPeptide Inc., and in vitro fibril generation was performed with a final concentration of 2 mg/ml in phosphate-buffered saline (PBS) by incubation at 37° C. with agitation in an orbital mixer (400 rpm) for 7 days with daily cycles of sonication used to break down fibrillar aggregates as outlined in previously published reports (see Luk et al., Science, 2012, vol. 338(6109), pp. 949-53; and Zhang et al., Methods Mol. Biol., 2019, vol. 1948, pp. 45-57, which are incorporated in their entirety herein by reference). The generation of fibrillar α-synuclein species was confirmed by transmission electron microscopy and Thioflavin T fluorescence prior to use.
. The lesion was performed using a 5 μl Hamilton syringe to deliver either vehicle or human PFF-Synuclein (8 μg) at the following coordinates relative to bregma: AP: +0.5 mm; ML: −2.0 mm; DV: −3.0 mm into the right dorsal striatum according to the stereotaxic atlas (“The mouse brain in stereotaxic coordinates” by Paxinos and Franklin, 1997). After drilling a 1 mm burr-hole in the skull, a 2 μl volume of solution was infused at the target site at the rate of 0.2 μl per minute. The needle was held in place for at least 5 minutes after injection to minimize retrograde flow along the needle tract. […]
At 12 months mice were sacrificed and striatal tissue was micro-dissected, weighed and snap-frozen at −80° C. […] Striatal dopamine (DA) and its metabolites (DOPAC and HVA) were quantified in their stable derivative form in the presence of internal standard 3,4-dihydroxybenzylamine (DHBA) using highly sensitive liquid chromatography-tandem mass spectrometry (LC-MS/MS) as described previously (Park et al., Biol. Pharm. Bull., 2013, vol. 36(2), pp. 252-8). […] For quantitation, one transition per analyte was monitored and two transitions per analyte were monitored for qualitative purposes.

[1] = prophylactic and therapeutic treated mice

With `CC(C)n1ccc(S(=O)(=O)NC(=O)Nc2c3c(cc4c2CCC4)CCC3)n1` [compound of formula (I)] the “striatal DOPAC compared to the untreated PFF mice” value [1] was “significantly higher”, the “striatal HVA compared to the untreated PFF mice” value [1] was “significantly higher” and the “striatal dopamine concentrations compared with untreated PFF-syn mice” value (prophylactic, P<0.02) was “significantly higher striatal dopamine concentrations”. The “striatal dopamine concentrations compared with untreated PFF-syn mice” value (therapeutic, P<0.05) was “significantly higher striatal dopamine concentrations”.

— US20220401414A1, “TREATMENT AND PREVENTION OF A NEURODEGENERATIVE DISORDER” (Inflazome Limited, priority 2019, published 2022)
